We go through 14 molecules from ChEMBL document CHEMBL1795342, “Discovery of S1P agonists with a dihydronaphthalene scaffold” (Bioorg Med Chem Lett, 2011).

Data set [1] addresses Sphingosine 1-phosphate receptor 3 (Homo sapiens, UniProt Q99500). In words: Agonist activity at human S1P3 receptor expressed in CHO cells assessed as intracellular calcium levels. Format: functional, cell-based.
Data set [2] addresses Sphingosine 1-phosphate receptor 1 (Homo sapiens, UniProt P21453). In words: Agonist activity at human S1P1 receptor expressed in CHO cells assessed as intracellular calcium levels. Format: functional, cell-based. Background: A change in cytosolic calcium serves as a functional read-out for many receptors and channels.
Data set [3] has as its system Mus musculus. In words: Immunomodulatory activity in po dosed mouse assessed as reduction in peripheral lymphocyte count measured at 4 hrs. The class given is functional.
Data set [4] in a line: AUC (infinity) in rat at 1 mg/kg, iv. The class given is ADME, organism-based. The arrangement: time infinity, dose 1 mg/kg, route intravenous. The conditions noted are these: plasma.
A short description of data set [5]: Volume of distribution at steady state in rat at 1 mg/kg, iv. Format: ADME, organism-based. The arrangement: dose 1 mg/kg, route intravenous. The settings on record: in vivo, read-out: Vdss.
Data set [6] can be described thus: Half life in rat at 1 mg/kg, po. The class given is ADME, organism-based. The arrangement: dose 1 mg/kg, route oral. The conditions noted are these: in vivo.
Data set [7] can be described thus: Cmax in rat at 1 mg/kg, po. The class given is ADME, organism-based. The arrangement: dose 1 mg/kg, route oral. The settings on record: in vivo.
Data set [8] can be described thus: Bioavailability in rat at 1 mg/kg, iv. The conditions noted are these: in vivo. The class given is ADME, organism-based.
The nature of data set [9]: Half life in rat at 1 mg/kg, iv. Format: ADME, organism-based. The conditions noted are these: in vivo. The arrangement: dose 1 mg/kg, route intravenous.
Data set [10] is described as follows: AUC (infinity) in rat at 1 mg/kg, po. The class given is ADME, organism-based. Also on record: time infinity, dose 1 mg/kg, route oral. The conditions noted are these: plasma.
The nature of data set [11]: Total clearance in rat at 1 mg/kg, iv. Format: ADME, organism-based. Also on record: dose 1 mg/kg, route intravenous. The settings on record: in vivo.

Sphingosine 1-phosphate receptor 3, sequence (Q99500 whole entry): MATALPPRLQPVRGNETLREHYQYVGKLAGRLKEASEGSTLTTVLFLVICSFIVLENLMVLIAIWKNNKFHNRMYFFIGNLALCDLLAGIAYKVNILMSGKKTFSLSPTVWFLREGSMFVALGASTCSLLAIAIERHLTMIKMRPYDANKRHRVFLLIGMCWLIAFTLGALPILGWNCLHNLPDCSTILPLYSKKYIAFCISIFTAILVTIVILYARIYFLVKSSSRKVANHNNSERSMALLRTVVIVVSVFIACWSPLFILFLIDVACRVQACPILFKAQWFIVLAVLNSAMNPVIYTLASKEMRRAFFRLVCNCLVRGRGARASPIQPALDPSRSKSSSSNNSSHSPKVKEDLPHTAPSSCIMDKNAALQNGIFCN
Sphingosine 1-phosphate receptor 1, sequence (P21453 whole entry): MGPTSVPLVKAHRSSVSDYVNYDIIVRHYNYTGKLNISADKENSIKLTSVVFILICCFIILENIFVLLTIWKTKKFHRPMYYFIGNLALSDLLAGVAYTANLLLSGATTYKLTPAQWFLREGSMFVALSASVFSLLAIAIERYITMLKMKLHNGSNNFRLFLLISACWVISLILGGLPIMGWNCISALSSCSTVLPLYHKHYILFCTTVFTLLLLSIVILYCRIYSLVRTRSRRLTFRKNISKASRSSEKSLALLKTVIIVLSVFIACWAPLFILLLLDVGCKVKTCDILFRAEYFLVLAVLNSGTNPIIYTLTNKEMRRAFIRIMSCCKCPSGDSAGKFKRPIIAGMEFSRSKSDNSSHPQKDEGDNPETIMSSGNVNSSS

Usually EC50 stands for the concentration needed to bring the measured effect to its halfway point. Take `O=C(O)CCNC/C=C/c1ccc(OCCCCc2ccccc2)cc1`: the EC50 is greater than 10000 nM in data set [1] and 120 nM in data set [2].

As to `O=C(O)CCNC/C=C/c1ccc(OCCCCCc2ccccc2)cc1`, the figures for the EC50 in data set [1] and in data set [2] were 6700 nM and 150 nM, respectively.

Regarding `CC1=C(CN2CC(C(=O)O)C2)CCCc2cc(OCCCCc3ccccc3)ccc21`, the EC50 is greater than 10000 nM in [1] and 1300 nM in data set [2].

On to `Cc1cc(/C=C/CNCCC(=O)O)ccc1OCCCCc1ccccc1`, for which the EC50 in [1] is greater than 10000 nM; in [2], 280 nM.

`COc1cc(OCCCCc2ccccc2)ccc1/C=C/CNCCC(=O)O`: the values for the EC50 in [1] and in data set [2] were greater than 10000 nM and 230 nM, respectively.

A word on the ED50: it is the dose that gives a 50% effect, or the effect in half of the subjects. Take `O=C(O)CCNC/C=C/c1ccc(OCCCc2ccccc2)cc1`: the ED50 in data set [3] is 4.6 mg/kg.

`O=C(O)CCNCC1=Cc2ccc(OCCCCc3ccccc3)cc2CC1`: the results for the EC50 in data set [1] and in [2] were 7800 nM and 57 nM, respectively.

`C/C(=C\c1ccc(OCCCCc2ccccc2)cc1)CNCCC(=O)O`: the concentration for a half-maximal effect (EC50) was 3000 nM in [1] and 10 nM in data set [2].

For `O=C(O)C1CN(C/C=C/c2ccc(OCCCc3ccccc3)cc2)C1`, the EC50 in data set [1] worked out at 3300 nM; in [2], 43 nM.

For orientation: AUC(0-inf) means total exposure, with the tail of the curve extrapolated. As a reminder, the half-life is the time in which the quantity being followed falls by half. Lower therefore signals rapid decline. As a reminder, the Cmax is the peak of the concentration-time curve. The bioavailability is the share of a dose that reaches the circulation, judged against a reference dose that is usually intravenous. For orientation: clearance means a measure of how efficiently the substance is removed, as volume per time. In the case of `CC1=C(CN2CC(C(=O)O)C2)CCc2cc(OCCCCc3ccccc3)ccc21`, the EC50 in data set [1] was greater than 10000 nM; in data set [2], 2.9 nM. Further, in [3], the ED50 stood at 0.16 mg/kg. In addition, the figures for the AUC(0-inf) in data set [4] and in [10] were 4400 ng·h/mL and 3800 ng·h/mL, respectively. Further, the Vd in data set [5] worked out at 2.86 L/kg. Also, the half-life is 16.7 h in [6] and 11 h in [9]. Further, the Cmax in [7] was determined as 181 ng/mL. In data set [8], this molecule came in with a bioavailability of 85%. The molecule also came in with a clearance in data set [11] of 4 mL/min/kg.

`CC1=C(CNCCC(=O)O)CCc2cc(OCCCCc3ccccc3)ccc21`: the EC50 in [1] was greater than 10000 nM; in data set [2], 11 nM. Besides, the ED50 in data set [3] was determined as 0.34 mg/kg. The results for the AUC(0-inf) in data set [4] and in data set [10] were 5400 ng·h/mL and 2400 ng·h/mL, respectively. Also, the Vd in data set [5] was 0.86 L/kg. Also, the half-life in data set [6] is 6.9 h; in data set [9], 5.2 h. This molecule had a Cmax in data set [7] of 168 ng/mL. In addition, the bioavailability in [8] came out at 44%. In data set [11], this molecule returned a clearance of 3.1 mL/min/kg.

In the case of `Cc1cc(OCCCCc2ccccc2)ccc1/C=C/CNCCC(=O)O`, the EC50 was greater than 10000 nM in [1] and 36 nM in data set [2].

For `O=C(O)CCNC/C=C/c1ccc(OCCCCc2ccccc2)cc1Cl`, the EC50 came to 7200 nM in [1] and 24 nM in data set [2].

Take `O=C(O)C1CCN(C/C=C/c2ccc(OCCCc3ccccc3)cc2)CC1`: the EC50 in data set [1] was greater than 10000 nM; in data set [2], 2400 nM.
